According to patent US5668182A, “Method of calming or sedating an animal with a hydroxy benzaldehyde compound” (priority 1996, dated 1997):
Where two headings read alike, the source gives them in different places.

Test system: mice
Assay: Inverted screen test in mice (Example 4)
Format: in vivo
Details: for ED50: Mus musculus, ip, read-out: ED-50 (95% confidence limits); for potency relative to vanillin: early time points (up to 5 minutes), ethanol vehicle itself gives approximately 10% impairment
Procedure: An inverted screen test was performed on mice to investigate the effect of vanillin and vanillin analogs on muscular function. After i.p. injection of vanillin or vehicle, each mouse was placed on a wire screen (12.8 cm×12.8 cm with a 6 mm mesh size) and the screen was inverted. A positive effect was found if the drug caused the mouse to fall from the screen within 60 seconds. A negative effect was found if the mouse had the ability to climb from the underside of the screen to the top side of the screen within the 60 second time period. Hanging from the underside of the screen without falling but without climbing to the topside at 60 seconds is recorded as a one-half positive effect per the convention of Coughenour, L. L.; Mclean, J. R.; Parker, R. B., "A New Device for the Rapid Measurement of Impaired Motor Function in Mice," Pharmacol. Biochem. Behav., 6: 351-353; 1977. The test was performed at 2, 5, 10, and 30 minutes following administration of vanillin or vehicle. At each of those times, an ED-50 (and 95% confidence limits) was determined for vanillin. Six mice were used in each experimental group.
Several analogs of vanillin were also examined in this test. The chemical structures and chemical names for these compounds are described hereinabove.
The testing of these compounds was limited both by supply of compound and by solubility. Testing was performed at 2, 5, 10, 20 minutes after administration of drug or vehicle. The vehicles used to solubilize the analogs were as follows: 10% ethanol for TBJ1, TBJ2, and TBJ3; 3% ammonium hydroxide solution in saline for FSA (pH=9); 6.7% ammonium hydroxide in saline for TB17 (pH=9.3); and 20% ethanol, 1% ammonium hydroxide solution in saline for TB34 (pH=10.0). ED-50s of compounds (and 95% confidence limits) were calculated in cases where the data permitted the calculation.

For `O=Cc1ccc(O)c(C(=O)O)c1` [FSA], the “effect on performance in inverted screen test” value (not included in Table 4) was “failed to affect performance”.
In the case of `O=Cc1ccc(OCc2ccccc2)c(C(=O)O)c1` [TB17], the “effect on performance in inverted screen test” value (not included in Table 4) is reported as “failed to affect performance”.
With `O=Cc1ccc(OCc2ccc(C(=O)O)cc2)c(C(=O)O)c1` [TB34] the “effect on performance in inverted screen test” value (not included in Table 4) was “mild or erratic effects”.
For `COC(=O)c1ccc(O)c(OC)c1` [TBJ1], the “effect on performance in inverted screen test” value (200 mg/kg, 5 minutes) was 100%, the “effect on performance in inverted screen test” value (200 mg/kg, 20 minutes) was 75% and the “effect on performance in inverted screen test” value (doses lower than 200 mg/kg) was “did not produce significant effects”.
`COC(=O)c1ccc(OC)c(O)c1` [TBJ2] was tested, and the ED50 (2 min, 2 min post-treatment) was ~100 mg/kg, the ED50 (5 min, 5 min post-treatment) was > 100 mg/kg and the ED50 (10 min, 10 min post-treatment) was 132 mg/kg. For the same molecule, the ED50 (20 min, at 20 min (printed in the 30 min line)) was ~140 mg/kg, the “potency relative to vanillin” value was “approximately equipotent to vanillin” and the “persistence of effect on performance” value (highest dose (200 mg/kg)) was 20 min. The “potency and duration relative to vanillin” value (mouse, in vivo) was “approximately equipotent and as long or longer acting”.
For `COC(=O)Cc1ccc(O)c(OC)c1` [TBJ3], the “ED-50: activity in words” value (10 min post-treatment, inactive at 200 (mg/kg)) was “inactive”, the ED50 (5 min, 5 min post-treatment) was 99.7 mg/kg and the “time by which effect had essentially abated” value (after injection) was ≤ 10 min. The “potency relative to vanillin” value was “approximately equipotent to vanillin”.
